# Results: ChEMBL document CHEMBL4613208, “Isatin derivatives and their anti-bacterial activities” (Eur J Med Chem, 2019)
# What was measured:
# Escherichia coli [1] = assay: In vivo antibacterial activity against Escherichia coli infected in po dosed mouse; type: functional
# Staphylococcus aureus [2] = assay: Antibacterial activity against Staphylococcus aureus; type: functional, organism-based
# Streptococcus pyogenes = assay: Antibacterial activity against Streptococcus pyogenes; type: functional
# Bacillus subtilis [3] = assay: Antibacterial activity against Bacillus subtilis; type: functional
# Proteus vulgaris = assay: Antibacterial activity against Proteus vulgaris; type: functional
# Klebsiella pneumoniae [4] = assay: Antibacterial activity against Klebsiella pneumoniae; type: functional
# Shigella flexneri = assay: Antibacterial activity against Shigella flexneri; type: functional
# [5] = Toxicity in po dosed mouse; type: organism-based; details: in vivo
# Escherichia coli [6] = assay: Antibacterial activity against Escherichia coli NCTC 10418; type: functional
# Escherichia coli [7] = assay: Potency index, ratio of ED50 for norfloxacin to ED50 for test compound for in vivo antibacterial activity against Escherichia coli infected in po dosed mouse; type: functional
# Escherichia coli [8] = assay: Antibacterial activity against Escherichia coli assessed as zone of inhibition at 20 mg/ml; type: functional; details: read-out: IZ
# Pseudomonas aeruginosa [9] = assay: Antibacterial activity against Pseudomonas aeruginosa assessed as zone of inhibition at 20 mg/ml; type: functional; details: read-out: IZ
# Staphylococcus aureus [10] = assay: Antibacterial activity against Staphylococcus aureus assessed as zone of inhibition at 20 mg/ml; type: functional; details: read-out: IZ
# Bacillus subtilis [11] = assay: Antibacterial activity against Bacillus subtilis assessed as zone of inhibition at 20 mg/ml; type: functional; details: read-out: IZ
# Escherichia coli [12] = assay: Antibacterial activity against Escherichia coli; type: functional, organism-based
# Vibrio cholerae = assay: Antibacterial activity against Vibrio cholerae; type: functional
# Pseudomonas aeruginosa [13] = assay: Antibacterial activity against Pseudomonas aeruginosa; type: functional, organism-based
# Salmonella typhi = assay: Antibacterial activity against Salmonella typhi; type: functional, Salmonella enterica subsp. enterica serovar Typhi; details: Salmonella enterica
# Citrobacter freundii = assay: Antibacterial activity against Citrobacter freundii; type: functional
# [14] = system: Staphylococcus epidermidis; assay: Antibacterial activity against Staphylococcus epidermidis; type: functional
# Bacillus pumilus = assay: Antibacterial activity against Bacillus pumilus; type: functional
# Priestia megaterium = assay: Antibacterial activity against Bacillus megaterium; type: functional
# Escherichia coli [15] = assay: Antibacterial activity against Escherichia coli ATCC 25922 after 24 hrs by agar well diffusion technique; type: functional; details: ATCC 25922, 24 h
# Bacillus cereus = assay: Antibacterial activity against Bacillus cereus after 24 hrs by agar well diffusion technique; type: functional
# Shigella dysenteriae [16] = assay: Potency index, ratio of MIC for sulfamethoxazole to MIC for test compound for antibacterial activity against Shigella dysenteriae after 24 hrs by agar well diffusion technique; type: functional
# Staphylococcus aureus [17] = assay: Antibacterial activity against Staphylococcus aureus ATCC 25923 after 24 hrs by agar well diffusion technique; type: functional; details: ATCC 25923, 24 h
# Shigella dysenteriae [18] = assay: Antibacterial activity against Shigella dysenteriae after 24 hrs by agar well diffusion technique; type: functional
# [19] = system: Staphylococcus epidermidis; assay: Antibacterial activity against Staphylococcus epidermidis after 24 hrs by paper disc diffusion technique; type: functional; details: Staphylococcus epidermidis, 24 h
# Pseudomonas aeruginosa [20] = assay: Antibacterial activity against Pseudomonas aeruginosa after 24 hrs by paper disc diffusion technique; type: functional; details: Pseudomonas aeruginosa, 24 h; read-out: MIC
# Staphylococcus aureus [21] = assay: Antibacterial activity against Staphylococcus aureus after 24 hrs by paper disc diffusion technique; type: functional; details: Staphylococcus aureus, 24 h; read-out: MIC
# Micrococcus luteus = assay: Antibacterial activity against Micrococcus luteus after 24 hrs by paper disc diffusion technique; type: functional; details: Micrococcus luteus, 24 h
# Escherichia coli [22] = assay: Antibacterial activity against Escherichia coli after 24 hrs by paper disc diffusion technique; type: functional; details: Escherichia coli, 24 h; read-out: MIC
# Klebsiella pneumoniae [23] = assay: Antibacterial activity against Klebsiella pneumoniae after 24 hrs by paper disc diffusion technique; type: functional; details: Klebsiella pneumoniae, 24 h; read-out: MIC
structure (smiles),measurement,setting,value
CCn1cc(C(=O)O)c(=O)c2cc(F)c(N3CCNCC3)cc21 [NORFLOXACIN],ED50,Escherichia coli [1],6 mg/kg
O=C1Nc2ccc(S(=O)(=O)N3CCOCC3)cc2C1=O,MIC,Staphylococcus aureus [2],0.007 to 0.49 µg/mL
same,MIC,Streptococcus pyogenes,0.007 to 0.49 µg/mL
same,MIC,Bacillus subtilis [3],0.007 to 0.49 µg/mL
same,MIC,Proteus vulgaris,0.007 to 0.49 µg/mL
same,MIC,Klebsiella pneumoniae [4],0.007 to 0.49 µg/mL
same,MIC,Shigella flexneri,0.007 to 0.49 µg/mL
CCn1cc(C(=O)O)c(=O)c2cc(F)c(N3CCN(CN4C(=O)/C(=N\c5ccc(S(=O)(=O)Nc6ncnc(OC)c6OC)cc5)c5ccccc54)CC3)cc21,LD50,[5],> 4000 mg/kg
same,MIC,Escherichia coli [6],< 1 µg/mL
same,ED50,Escherichia coli [1],1.25 mg/kg
same,Ratio ED50,Escherichia coli [7],>3.7
CCOC(=O)CN1C(=O)/C(=C2\SC(=S)N(CC(=O)N(c3oc(NC(C)(C)C)c(C(=O)OCC)c3C(=O)OCC)C(C)(C)C)C2=O)c2ccccc21,zone of inhibition at 20000 µg/mL,Escherichia coli [8],15.6 to 26 mm
same,zone of inhibition at 20000 µg/mL,Pseudomonas aeruginosa [9],15.6 to 26 mm
same,zone of inhibition at 20000 µg/mL,Staphylococcus aureus [10],15.6 to 26 mm
same,zone of inhibition at 20000 µg/mL,Bacillus subtilis [11],15.6 to 26 mm
O=C1C(=O)N(CN2CCN(c3cc4c(cc3F)c(=O)c(C(=O)O)cn4C3CC3)CC2)c2ccccc21,MIC,Staphylococcus aureus [2],0.1 to 0.5 µg/mL
same,MIC,Escherichia coli [12],0.1 to 0.5 µg/mL
same,MIC,Vibrio cholerae,0.1 to 0.5 µg/mL
same,MIC,Pseudomonas aeruginosa [13],0.1 to 0.5 µg/mL
same,MIC,Klebsiella pneumoniae [4],0.1 to 0.5 µg/mL
same,MIC,Salmonella typhi,0.1 to 0.5 µg/mL
same,MIC,Citrobacter freundii,0.1 to 0.5 µg/mL
same,MIC,Shigella flexneri,0.1 to 0.5 µg/mL
same,MIC,[14],0.1 to 0.5 µg/mL
CCn1cc(C(=O)O)c(=O)c2cc(F)c(N3CCN(CN4C(=O)/C(=N\c5ncc(Cc6cc(OC)c(OC)c(OC)c6)c(N)n5)c5cc(Br)ccc54)CC3)cc21,MIC,Escherichia coli [6],< 1 µg/mL
same,Ratio ED50,Escherichia coli [7],>3.7
Cc1ccc2c(c1)C(=O)C(=O)N2CN1CCN(c2cc3c(cc2F)c(=O)c(C(=O)O)cn3C2CC2)CC1,MIC,Staphylococcus aureus [2],0.1 to 0.5 µg/mL
same,MIC,Escherichia coli [12],0.1 to 0.5 µg/mL
same,MIC,Vibrio cholerae,0.1 to 0.5 µg/mL
same,MIC,Pseudomonas aeruginosa [13],0.1 to 0.5 µg/mL
same,MIC,Klebsiella pneumoniae [4],0.1 to 0.5 µg/mL
same,MIC,Salmonella typhi,0.1 to 0.5 µg/mL
same,MIC,Citrobacter freundii,0.1 to 0.5 µg/mL
same,MIC,Shigella flexneri,0.1 to 0.5 µg/mL
same,MIC,[14],0.1 to 0.5 µg/mL
N[C@@H](C(=O)N[C@@H]1C(=O)N2C(C(=O)O)=C(Cl)CS[C@H]12)c1ccccc1 [CEFACLOR ANHYDROUS],MIC,Staphylococcus aureus [2],2 to 8 µg/mL
same,MIC,Bacillus pumilus,2 to 8 µg/mL
same,MIC,Pseudomonas aeruginosa [13],2 to 8 µg/mL
same,MIC,Priestia megaterium,2 to 8 µg/mL
same,MIC,[14],2 to 8 µg/mL
Cc1ccc2c(c1)/C(=N/c1ccc(S(=O)(=O)Nc3cc(C)on3)cc1)C(=O)N2,MIC,Escherichia coli [15],5 µg/mL
same,MIC,Bacillus cereus,5 µg/mL
same,Ratio,Shigella dysenteriae [16],2.5
same,MIC,Staphylococcus aureus [17],5 µg/mL
same,MIC,Shigella dysenteriae [18],1 µg/mL
CC(C)(C)Nc1oc(N(C(=O)CN2C(=O)C(=O)c3ccccc32)C(C)(C)C)c(C(=O)OC(C)(C)C)c1C(=O)OC(C)(C)C,zone of inhibition at 20000 µg/mL,Escherichia coli [8],15.6 to 26 mm
same,zone of inhibition at 20000 µg/mL,Pseudomonas aeruginosa [9],15.6 to 26 mm
same,zone of inhibition at 20000 µg/mL,Staphylococcus aureus [10],15.6 to 26 mm
same,zone of inhibition at 20000 µg/mL,Bacillus subtilis [11],15.6 to 26 mm
COC(=O)c1c(NC(C)(C)C)oc(N(C(=O)CN2C(=O)/C(=C3/C(=O)N(CC(=O)N(c4oc(NC(C)(C)C)c(C(=O)OC(C)(C)C)c4C(=O)OC(C)(C)C)C(C)(C)C)c4ccccc43)SC2=S)C(C)(C)C)c1C(=O)OC,zone of inhibition at 20000 µg/mL,Escherichia coli [8],15.6 to 26 mm
same,zone of inhibition at 20000 µg/mL,Pseudomonas aeruginosa [9],15.6 to 26 mm
same,zone of inhibition at 20000 µg/mL,Staphylococcus aureus [10],15.6 to 26 mm
same,zone of inhibition at 20000 µg/mL,Bacillus subtilis [11],15.6 to 26 mm
CCOC(=O)CN1C(=O)/C(=C2\SC(=S)N(CC(=O)N(c3oc(NC(C)(C)C)c(C(=O)OC)c3C(=O)OC)C(C)(C)C)C2=O)c2cc(Cl)ccc21,zone of inhibition at 20000 µg/mL,Escherichia coli [8],15.6 to 26 mm
same,zone of inhibition at 20000 µg/mL,Pseudomonas aeruginosa [9],15.6 to 26 mm
same,zone of inhibition at 20000 µg/mL,Staphylococcus aureus [10],15.6 to 26 mm
same,zone of inhibition at 20000 µg/mL,Bacillus subtilis [11],15.6 to 26 mm
CC(=O)NC[C@H]1CN(c2ccc(N3CCOCC3)c(F)c2)C(=O)O1 [LINEZOLID],MIC,Staphylococcus aureus [2],4 to 8 µg/mL
same,MIC,Bacillus pumilus,4 to 8 µg/mL
same,MIC,Pseudomonas aeruginosa [13],4 to 8 µg/mL
same,MIC,Priestia megaterium,4 to 8 µg/mL
same,MIC,[14],4 to 8 µg/mL
O=C(O)c1cn(C2CC2)c2cc(N3CCNCC3)c(F)cc2c1=O [CIPROFLOXACIN],MIC,Staphylococcus aureus [2],< 5 µg/mL
same,MIC,[19],3.9 to 15.6 µg/mL
same,MIC,Pseudomonas aeruginosa [20],3.9 to 15.6 µg/mL
same,MIC,Escherichia coli [12],< 5 µg/mL
same,MIC,Staphylococcus aureus [21],3.9 to 15.6 µg/mL
same,MIC,Pseudomonas aeruginosa [13],< 5 µg/mL
same,MIC,Micrococcus luteus,3.9 to 15.6 µg/mL
same,MIC,Escherichia coli [22],3.9 to 15.6 µg/mL
same,MIC,Bacillus subtilis [3],< 5 µg/mL
same,MIC,Klebsiella pneumoniae [23],3.9 to 15.6 µg/mL
same,MIC,Salmonella typhi,2 nM
CC1S/C(=N/N=C2\C(=O)Nc3ccc(S(=O)(=O)N4CCOCC4)cc32)N(c2ccccc2)C1=O (stereo not drawn),MIC,Staphylococcus aureus [2],0.03 to 3.9 µg/mL
same,MIC,Streptococcus pyogenes,0.03 to 3.9 µg/mL
same,MIC,Bacillus subtilis [3],0.03 to 3.9 µg/mL
same,MIC,Proteus vulgaris,0.03 to 3.9 µg/mL
same,MIC,Klebsiella pneumoniae [4],0.03 to 3.9 µg/mL
same,MIC,Shigella flexneri,0.03 to 3.9 µg/mL
CCOC(=O)c1c(NC(C)(C)C)oc(N(C(=O)CN2C(=O)/C(=C3/C(=O)N(CO)c4ccccc43)SC2=S)C(C)(C)C)c1C(=O)OCC,zone of inhibition at 20000 µg/mL,Escherichia coli [8],15.6 to 26 mm
same,zone of inhibition at 20000 µg/mL,Pseudomonas aeruginosa [9],15.6 to 26 mm
same,zone of inhibition at 20000 µg/mL,Staphylococcus aureus [10],15.6 to 26 mm
same,zone of inhibition at 20000 µg/mL,Bacillus subtilis [11],15.6 to 26 mm
CCn1cc(C(=O)O)c(=O)c2cc(F)c(N3CCNC(C)C3)c(F)c21 (stereo not drawn) [LOMEFLOXACIN],MIC,Staphylococcus aureus [2],0.25 to 2.5 µg/mL
same,MIC,Escherichia coli [12],0.25 to 2.5 µg/mL
same,MIC,Vibrio cholerae,0.25 to 2.5 µg/mL
same,MIC,Pseudomonas aeruginosa [13],0.25 to 2.5 µg/mL
same,MIC,Klebsiella pneumoniae [4],0.25 to 2.5 µg/mL
same,MIC,Salmonella typhi,0.25 to 2.5 µg/mL
same,MIC,Citrobacter freundii,0.25 to 2.5 µg/mL
same,MIC,Shigella flexneri,0.25 to 2.5 µg/mL
same,MIC,[14],0.25 to 2.5 µg/mL
CC1(C)S[C@@H]2[C@H](NC(=O)[C@H](N)c3ccccc3)C(=O)N2[C@H]1C(=O)O [AMPICILLIN],MIC,Staphylococcus aureus [2],0.007 to 1.95 µg/mL
same,MIC,Streptococcus pyogenes,0.007 to 1.95 µg/mL
same,MIC,Bacillus subtilis [3],0.007 to 1.95 µg/mL
same,MIC,Proteus vulgaris,0.007 to 1.95 µg/mL
same,MIC,Klebsiella pneumoniae [4],0.007 to 1.95 µg/mL
same,MIC,Shigella flexneri,0.007 to 1.95 µg/mL
